Measurements from the Kinase Knowledgebase extract (Sharma et al. 2016).

Molecular target: PIK3CD (Human) (UniProt O00329)
Assay: Assessment of PIK3CD Kinase Activity (Scintillation Proximity Assay)

PIK3CD (Human), sequence (O00329 whole entry, looked up): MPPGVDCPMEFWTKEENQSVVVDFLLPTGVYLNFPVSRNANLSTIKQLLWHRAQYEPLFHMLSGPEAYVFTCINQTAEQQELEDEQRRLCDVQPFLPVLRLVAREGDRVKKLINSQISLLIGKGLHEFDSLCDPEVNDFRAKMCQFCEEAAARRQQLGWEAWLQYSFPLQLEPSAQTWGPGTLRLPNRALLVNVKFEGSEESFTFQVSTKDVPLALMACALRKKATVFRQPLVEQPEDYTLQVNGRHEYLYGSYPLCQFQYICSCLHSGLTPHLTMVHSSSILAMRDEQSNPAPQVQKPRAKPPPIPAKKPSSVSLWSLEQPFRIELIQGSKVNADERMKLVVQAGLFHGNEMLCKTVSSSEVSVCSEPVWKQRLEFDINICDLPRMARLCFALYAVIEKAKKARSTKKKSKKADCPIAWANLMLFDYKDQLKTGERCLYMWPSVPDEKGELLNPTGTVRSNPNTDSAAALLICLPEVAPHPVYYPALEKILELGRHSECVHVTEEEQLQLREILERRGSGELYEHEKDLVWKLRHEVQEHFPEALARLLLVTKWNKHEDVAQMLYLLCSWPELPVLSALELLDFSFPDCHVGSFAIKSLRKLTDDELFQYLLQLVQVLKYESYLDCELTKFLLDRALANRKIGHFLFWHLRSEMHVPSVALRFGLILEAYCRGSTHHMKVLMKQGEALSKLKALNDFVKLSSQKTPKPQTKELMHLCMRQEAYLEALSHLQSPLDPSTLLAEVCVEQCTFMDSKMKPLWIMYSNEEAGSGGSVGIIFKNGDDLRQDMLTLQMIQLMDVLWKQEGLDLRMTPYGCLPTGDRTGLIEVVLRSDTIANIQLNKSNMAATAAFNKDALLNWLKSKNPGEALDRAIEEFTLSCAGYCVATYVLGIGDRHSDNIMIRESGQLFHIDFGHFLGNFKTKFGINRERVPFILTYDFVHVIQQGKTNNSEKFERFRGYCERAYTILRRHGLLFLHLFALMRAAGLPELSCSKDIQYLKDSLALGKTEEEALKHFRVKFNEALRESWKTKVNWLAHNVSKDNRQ

Row | SMILES | IC50
1 | CCC(=O)N1CC(c2c(C#N)c(Cl)cc(C(C)n3nc(C)c4c(N)ncnc43)c2OC)C1 (stereo not drawn) | ≤ 10 nM
2 | COc1c(C(C)n2nc(C)c3c(N)ncnc32)cc(Cl)c(C#N)c1C1CN(C[C@H](C)O)C1 (stereo partly drawn) | ≤ 10 nM
3 | COc1c(C(C)n2nc(C)c3c(N)ncnc32)cc(Cl)c(C#N)c1C1CN(C2CCOCC2)C1 (stereo not drawn) | ≤ 10 nM
4 | COc1c(C(C)n2nc(C(F)F)c3c(N)ncnc32)cc(C#N)c(C)c1C1CN(CC(F)(F)F)C1 (stereo not drawn) | ≤ 10 nM
5 | CCOc1c(C(C)n2nc(C)c3c(N)ncnc32)cc(Cl)c(F)c1C1CN(CC(N)=O)C1 (stereo not drawn) | ≤ 10 nM
6 | CCOc1c(C(C)n2nc(C)c3c(N)ncnc32)cc(Cl)c(C#N)c1C1CNC1 (stereo not drawn) | ≤ 10 nM
7 | CNC(=O)N1CC(c2c(C#N)c(Cl)cc(C(C)n3nc(C)c4c(N)ncnc43)c2OC)C1 (stereo not drawn) | ≤ 10 nM
8 | COc1c(C(C)n2nc(C)c3c(N)ncnc32)cc(Cl)c(C#N)c1C1CN(S(=O)(=O)C(C)C)C1 (stereo not drawn) | ≤ 10 nM
9 | CCOc1c(C(C)n2nc(C)c3c(N)ncnc32)cc(Cl)c(C#N)c1C1CN(C2CCC2)C1 (stereo not drawn) | ≤ 10 nM
10 | CCOc1c(C(C)n2nc(C)c3c(N)ncnc32)cc(C)c(C#N)c1C1CN(C(=O)C(C)(C)O)C1 (stereo not drawn) | ≤ 10 nM
11 | CCOc1c(C(C)n2nc(C)c3c(N)ncnc32)cc(Cl)c(F)c1C1CN(C(C)C)C1 (stereo not drawn) | ≤ 10 nM
12 | CCOc1c(C(C)n2nc(C)c3c(N)ncnc32)cc(Cl)c(C#N)c1C1CN(CC2CC2)C1 (stereo not drawn) | ≤ 10 nM
13 | CCOc1c(C(C)n2nc(C)c3c(N)ncnc32)cc(Cl)c(C#N)c1C1CN(S(=O)(=O)C(C)C)C1 (stereo not drawn) | ≤ 10 nM
14 | COc1c(C(C)n2nc(C)c3c(N)ncnc32)cc(Cl)c(C#N)c1C1CN(CCO)C1 (stereo not drawn) | ≤ 10 nM
15 | COc1c(C(C)n2nc(C)c3c(N)ncnc32)cc(Cl)c(C)c1C1CCN(C)CC1 (stereo not drawn) | ≤ 10 nM
16 | COc1c(C(C)n2nc(C)c3c(N)ncnc32)cc(Cl)c(F)c1C1CN(C[C@H](C)O)C1 (stereo partly drawn) | ≤ 10 nM
17 | CCOC(=O)N1CC(c2c(C#N)c(Cl)cc(C(C)n3nc(C)c4c(N)ncnc43)c2OCC)C1 (stereo not drawn) | ≤ 10 nM
18 | COc1c(C(C)n2nc(C)c3c(N)ncnc32)cc(Cl)c(C#N)c1C1CN(C(C)CO)C1 (stereo not drawn) | ≤ 10 nM
19 | COc1c(C(C)n2nc(C)c3c(N)ncnc32)cc(Cl)c(C)c1C1CN(CC(F)F)C1 (stereo not drawn) | ≤ 10 nM
20 | COc1c(C(C)n2nc(C(F)F)c3c(N)ncnc32)cc(C#N)c(C)c1C1CN(CC(F)F)C1 (stereo not drawn) | ≤ 10 nM
21 | CCOc1c(C(C)n2nc(C)c3c(N)ncnc32)cc(Cl)c(C)c1C1CN(C(=O)[C@H](C)O)C1 (stereo partly drawn) | ≤ 10 nM
22 | CCNC(=O)c1c(C)c(Cl)cc(C(C)n2nc(-c3ccc4[nH]ccc4c3)c3c(N)ncnc32)c1OCC (stereo not drawn) | ≤ 10 nM
23 | CCOc1c(C(C)n2ccc(=O)c3c(N)ncnc32)cc(Cl)c(C)c1C1CN(C(C)C)C1 (stereo not drawn) | ≤ 10 nM
24 | CCOc1c(C(C)n2nc(C)c3c(N)ncnc32)cc(Cl)c(C#N)c1C1CN(S(=O)(=O)CC)C1 (stereo not drawn) | ≤ 10 nM
25 | CCOc1c(C(C)n2nc(C)c3c(N)ncnc32)cc(Cl)c(C#N)c1C1CN(C(C)(C)C(=O)N(C)C)C1 (stereo not drawn) | ≤ 10 nM
26 | CNC(=O)[C@@H](C)N1CC(c2c(C)c(Cl)cc(C(C)n3nc(C)c4c(N)ncnc43)c2OC)C1 (stereo partly drawn) | ≤ 10 nM
27 | COc1c(C(C)n2nc(C)c3c(N)ncnc32)cc(Cl)c(C#N)c1C1CN(C(C)C)C1 (stereo not drawn) | ≤ 10 nM
28 | COc1c(C(C)n2nc(C)c3c(N)ncnc32)cc(Cl)c(Cl)c1C1CN(C(C)C)C1 (stereo not drawn) | ≤ 10 nM

Row | SMILES | IC50
29 | COc1c(C(C)n2nc(C)c3c(N)ncnc32)cc(Cl)c(C#N)c1C1CN(CC(C)(C)O)C1 (stereo not drawn) | ≤ 10 nM
30 | CCOc1c(C(C)n2nc(C)c3c(N)ncnc32)cc(Cl)c(C#N)c1C1CN(C(=O)N(C)C)C1 (stereo not drawn) | ≤ 10 nM
31 | COc1c(C(C)n2nc(C(F)F)c3c(N)ncnc32)cc(C#N)c(C)c1C1CN(CC(C)(C)O)C1 (stereo not drawn) | ≤ 10 nM
32 | CCOc1c(C(C)n2nc(C)c3c(N)ncnc32)cc(Cl)c(F)c1C1CN(CC)C1 (stereo not drawn) | ≤ 10 nM
33 | COc1c(C(C)n2nc(C)c3c(N)ncnc32)cc(Cl)c(C)c1C1CN(CC(F)(F)F)C1 (stereo not drawn) | ≤ 10 nM
34 | CCOc1c(C(C)n2nc(C)c3c(N)ncnc32)cc(Cl)c(F)c1C1CN(C[C@@H](C)O)C1 (stereo partly drawn) | ≤ 10 nM
35 | CCOc1c(C(C)n2nc(C)c3c(N)ncnc32)cc(Cl)c(C#N)c1N1CC(OC)C1 (stereo not drawn) | ≤ 10 nM
36 | COc1c(C(C)n2nc(C)c3c(N)ncnc32)cc(Cl)c(C#N)c1C1CN(C(=O)NC(C)(C)C)C1 (stereo not drawn) | ≤ 10 nM
37 | CCOc1c(C(C)n2nc(C)c3c(N)ncnc32)cc(C)c(C#N)c1-c1cnn(C)c1 (stereo not drawn) | ≤ 10 nM
38 | COc1c(C(C)n2nc(C(F)F)c3c(N)ncnc32)cc(C#N)c(F)c1C1CN(C[C@H](C)O)C1 (stereo partly drawn) | ≤ 10 nM
39 | CCN1CC(c2c(C#N)c(Cl)cc(C(C)n3nc(C)c4c(N)ncnc43)c2OC)C1 (stereo not drawn) | ≤ 10 nM
40 | CCOc1c(C(C)n2nc(C)c3c(N)ncnc32)cc(Cl)c(C)c1C1CN(C(=O)[C@@H](C)O)C1 (stereo partly drawn) | ≤ 10 nM
41 | COc1c(C(C)n2nc(C)c3c(N)ncnc32)cc(Cl)c(Cl)c1C1CN(C(C)=O)C1 (stereo not drawn) | ≤ 10 nM
42 | CCOc1c(C(C)n2nc(C)c3c(N)ncnc32)cc(Cl)c(C#N)c1C1CN(C[C@H](C)O)C1 (stereo partly drawn) | ≤ 10 nM
43 | CCOc1c(C(C)n2nc(C)c3c(N)ncnc32)cc(Cl)c(C#N)c1C1CN(C(C)(C)C(=O)OC(C)(C)C)C1 (stereo not drawn) | ≤ 10 nM
44 | COc1c(C(C)n2nc(C)c3c(N)ncnc32)cc(Cl)c(C#N)c1C1CN(C(=O)C(C)C)C1 (stereo not drawn) | ≤ 10 nM
45 | COc1c(C(C)n2nc(C)c3c(N)ncnc32)cc(Cl)c(C#N)c1C1CN(CC2CCOCC2)C1 (stereo not drawn) | ≤ 10 nM
46 | COc1c(C(C)n2nc(C)c3c(N)ncnc32)cc(Cl)c(F)c1C1CN(CC(C)(C)O)C1 (stereo not drawn) | ≤ 10 nM
47 | CNC(=O)[C@@H](C)N1CC(c2c(C)c(C#N)cc(C(C)n3nc(C(F)F)c4c(N)ncnc43)c2OC)C1 (stereo partly drawn) | ≤ 10 nM
48 | CCOc1c(C(C)n2nc(C)c3c(N)ncnc32)cc(Cl)c(C#N)c1C1CNC(=O)O1 (stereo not drawn) | ≤ 10 nM
49 | CCOc1c(C(C)n2nc(C)c3c(N)ncnc32)cc(Cl)c(C#N)c1C1CN(S(C)(=O)=O)C1 (stereo not drawn) | ≤ 10 nM
50 | CCOc1c(C(C)n2nc(C)c3c(N)ncnc32)cc(Cl)c(C#N)c1C1CN(C(C)CO)C1 (stereo not drawn) | ≤ 10 nM
51 | COc1c(C(C)n2nc(C)c3c(N)ncnc32)cc(Cl)c(C)c1C1CN(C(C)CF)C1 (stereo not drawn) | ≤ 10 nM
52 | CCOc1c(C(C)n2nc(C)c3c(N)ncnc32)cc(Cl)c(C#N)c1C1CN(C(COC)COC)C1 (stereo not drawn) | ≤ 10 nM
53 | CCOc1c(C(C)n2nc(C)c3c(N)ncnc32)cc(Cl)c(C#N)c1C1CN(C(=O)C(C)C)C1 (stereo not drawn) | ≤ 10 nM
54 | CCOc1c(C(C)n2nc(C)c3c(N)ncnc32)cc(Cl)c(F)c1C1CNC(=O)C1 (stereo not drawn) | ≤ 10 nM
55 | CCOc1c(C(C)n2nc(C)c3c(N)ncnc32)cc(Cl)c(C)c1C1CNC(=O)C1 (stereo not drawn) | ≤ 10 nM

Results, then the molecule that gave them:

Row | IC50 | SMILES
56 | ≤ 10 nM | COc1c(C(C)n2nc(C)c3c(N)ncnc32)cc(Cl)c(C)c1-c1cncc(C(=O)N2CC(C#N)C2)c1 (stereo not drawn)
57 | ≤ 10 nM | COc1c(C(C)n2nc(C)c3c(N)ncnc32)cc(Cl)c(C)c1-c1cnn(C(C)C(=O)N(C)C)c1 (stereo not drawn)
58 | 10 to 50 nM | CCOc1c(C(C)n2nc(C#N)c3c(N)ncnc32)cc(Cl)c(C)c1-c1ccc(C(=O)N(C)C)nc1 (stereo not drawn)
59 | ≤ 10 nM | CCOc1c(C(C)n2nc(-c3cccc(F)c3)c3c(N)ncnc32)cc(Cl)c(C)c1-c1ccc(C(=O)N(C)C)nc1 (stereo not drawn)
60 | ≤ 10 nM | CCOc1c(C(C)n2nc(-c3cnn(C)c3)c3c(N)ncnc32)cc(Cl)c(C)c1-c1ccc(C(=O)N(C)C)nc1 (stereo not drawn)
61 | ≤ 10 nM | COc1c(C(C)n2nc(C)c3c(N)ncnc32)cc(Cl)c(C)c1C1CN(C[C@H](C)O)C1 (stereo partly drawn)
62 | ≤ 10 nM | COc1c(C(C)n2nc(C)c3c(N)ncnc32)cc(Cl)c(C)c1C1CN([C@@H](C)CO)C1 (stereo partly drawn)
63 | ≤ 10 nM | COc1c(C(C)n2nc(C)c3c(N)ncnc32)cc(Cl)c(C)c1C1CN(C)C1 (stereo not drawn)
64 | 10 to 50 nM | COc1c(C(C)n2ncc3c(N)ncnc32)cc(Cl)c(C)c1-c1ccnc(C(=O)N(C)C)c1 (stereo not drawn)
65 | ≤ 10 nM | COc1c(C(C)n2nc(C)c3c(N)ncnc32)cc(Cl)c(C)c1C1CN(C(C)=O)C1 (stereo not drawn)
66 | ≤ 10 nM | CNC(=O)CCc1c(C)c(Cl)cc(C(C)n2nc(C)c3c(N)ncnc32)c1OC (stereo not drawn)
67 | ≤ 10 nM | CCOc1c(C(C)n2nc(C)c3c(N)ncnc32)cc(Cl)c(C)c1-c1ccc(C(=O)N(C)C)nc1 (stereo not drawn)
68 | ≤ 10 nM | COc1c(C(C)n2nc(C)c3c(N)ncnc32)cc(Cl)c(C)c1CC#N (stereo not drawn)
69 | ≤ 10 nM | COc1c(C(C)n2nc(C)c3c(N)ncnc32)cc(Cl)c(C)c1-c1ccc(C(=O)N(C)CCO)nc1 (stereo not drawn)
70 | ≤ 10 nM | COc1c(C(C)n2nc(C)c3c(N)ncnc32)cc(Cl)c(C)c1-c1cnc(N)nc1 (stereo not drawn)
71 | ≤ 10 nM | COc1c(C(C)n2nc(C)c3c(N)ncnc32)cc(Cl)c(C#N)c1-c1cncc(S(C)(=O)=O)c1 (stereo not drawn)
72 | ≤ 10 nM | CCOc1c(C(C)n2nc(C3CC3)c3c(N)ncnc32)cc(Cl)c(C)c1-c1ccc(C(=O)N(C)C)nc1 (stereo not drawn)

Row | IC50 | SMILES
73 | ≤ 10 nM | CCOc1c(C(C)n2nc(C)c3c(N)ncnc32)cc(Cl)c(C#N)c1-c1ccc(C(=O)N(C)C)nc1 (stereo not drawn)
74 | ≤ 10 nM | COc1c(C(C)n2nc(C)c3c(N)ncnc32)cc(Cl)c(C)c1-c1ccc(NCCO)nc1 (stereo not drawn)
75 | ≤ 10 nM | CCOc1c(C(C)n2nc(C)c3c(N)ncnc32)cc(Cl)c(C#N)c1-c1ccc(C(C)(C)O)nc1 (stereo not drawn)
76 | ≤ 10 nM | COc1c(C(C)n2nc(C)c3c(N)ncnc32)cc(Cl)c(C)c1C1CN(C(=O)C(C)(C)O)C1 (stereo not drawn)
77 | ≤ 10 nM | CCOc1c(C(C)n2nc(C)c3c(N)ncnc32)cc(Cl)c(C)c1C1CN(CCO)C1 (stereo not drawn)
78 | ≤ 10 nM | CCOc1c(C(C)n2nc(-c3ccc(C(=O)NC)nc3)c3c(N)ncnc32)cc(Cl)c(C)c1-c1ccc(C(=O)N(C)C)nc1 (stereo not drawn)
79 | ≤ 10 nM | CNC(=O)N1CC(c2c(C)c(Cl)cc(C(C)n3nc(C)c4c(N)ncnc43)c2OC)C1 (stereo not drawn)
80 | 10 to 50 nM | COc1c(C(C)n2nc(C)c3c(N)ncnc32)cc(C#N)c(C)c1-c1cnn(C)c1 (stereo not drawn)
81 | ≤ 10 nM | COc1c(C(C)n2nc(C)c3c(N)ncnc32)cc(Cl)c(C#N)c1-c1ccc(C(=O)N(C)C)nc1 (stereo not drawn)
82 | ≤ 10 nM | CCOc1c(C(C)n2nc(C)c3c(N)ncnc32)cc(Cl)c(C)c1-c1ccc(C(=O)NC)nc1 (stereo not drawn)
83 | ≤ 10 nM | CCOc1c(C(C)n2nc(C)c3c(N)ncnc32)cc(Cl)c(C#N)c1-c1cncc(S(C)(=O)=O)c1 (stereo not drawn)
84 | 50 to 200 nM | CCOc1c(C(C)n2nc(CC)c3c(N)ncnc32)cc(Cl)c(C)c1-c1ccc(C(=O)N(C)C)nc1 (stereo not drawn)
85 | ≤ 10 nM | CCOc1c(C(C)n2nc(C#C[C@H](C)O)c3c(N)ncnc32)cc(Cl)c(C)c1-c1ccc(C(=O)N(C)C)nc1 (stereo partly drawn)
86 | ≤ 10 nM | CCOc1c(C(C)n2nc(C)c3c(N)ncnc32)cc(Cl)c(C)c1-c1cncc(S(C)(=O)=O)c1 (stereo not drawn)
87 | ≤ 10 nM | COc1c(C(C)n2nc(C)c3c(N)ncnc32)cc(Cl)c(C)c1C1CN([C@H](C)CO)C1 (stereo partly drawn)
88 | ≤ 10 nM | CCOc1c(C(C)n2nc(-c3cnc(N)nc3)c3c(N)ncnc32)cc(Cl)c(C)c1-c1ccc(C(=O)N(C)C)nc1 (stereo not drawn)
